pIC50, pKd, pKi: −log10 of the molar value. Converted amounts (≈) assume the structure as drawn.
Columns and labels:
[1] = target: D-alanine--D-alanine ligase B (Escherichia coli K-12, UniProt P07862); assay: Competitive inhibition of Escherichia coli DdlB using ATP as substrate
[2] = target: T1, D-alanine--D-alanine ligase (Helicobacter pylori (strain HPAG1), UniProt Q1CTD3); assay: Competitive inhibition of Helicobacter pylori Ddl using ATP as substrate
T1 sequence (Q1CTD3 whole entry): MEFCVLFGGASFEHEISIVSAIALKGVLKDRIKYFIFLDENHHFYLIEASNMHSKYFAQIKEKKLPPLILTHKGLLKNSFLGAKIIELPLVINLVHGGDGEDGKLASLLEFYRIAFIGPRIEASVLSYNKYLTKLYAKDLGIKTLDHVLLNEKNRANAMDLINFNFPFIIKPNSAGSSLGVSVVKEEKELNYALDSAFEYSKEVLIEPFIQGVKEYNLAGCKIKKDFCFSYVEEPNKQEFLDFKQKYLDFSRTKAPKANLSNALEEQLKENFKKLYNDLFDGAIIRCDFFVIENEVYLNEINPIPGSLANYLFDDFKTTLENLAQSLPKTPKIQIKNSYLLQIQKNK

Helicobacter pylori [3] = assay: Antibacterial activity against Helicobacter pylori 43504 assessed as growth inhibition; type: functional
Escherichia coli [4] = assay: Antibacterial activity against Escherichia coli 25922 assessed as growth inhibition; type: functional
Escherichia coli [5] = assay: Antibacterial activity against Escherichia coli JM019 assessed as growth inhibition; type: functional
Helicobacter pylori [6] = assay: Antibacterial activity against Helicobacter pylori SS1 assessed as growth inhibition; type: functional
[7] = target: T1, D-alanine--D-alanine ligase; assay: Binding affinity to Helicobacter pylori Ddl by surface plasmon resonance biosensor technology

| SMILES | pIC50 [1] | pIC50 [2] | pKi [2] | MIC (Helicobacter pylori [3]) [µg/mL] | MIC (Escherichia coli [4]) [µg/mL] | MIC (Escherichia coli [5]) [µg/mL] | MIC (Helicobacter pylori [6]) [µg/mL] | pKd [7] |
| --- | --- | --- | --- | --- | --- | --- | --- | --- |
| O=c1c(O)c(-c2ccc(O)c(O)c2)oc2cc(O)cc(O)c12 [QUERCETIN] | 4.70 | 4.31 | 5.37 | 100 (≈ 331 µM) | 300 (≈ 993 µM) | 300 (≈ 993 µM) | 200 (≈ 662 µM) | 4.89 |
| O=c1cc(-c2ccc(O)cc2)oc2cc(O)cc(O)c12 [APIGENIN] | 3.79 | 3.88 | 4.51 | 25 (≈ 92.5 µM) | > 200 | 200 (≈ 740 µM) | 25 (≈ 92.5 µM) |  |

From ChEMBL document CHEMBL3045659, “Molecular docking studies on analogues of quercetin with d-alanine:d-alanine ligase of Helicobacter pylori” (Med Chem Res, 2013)
